Source: patent US20120231097A1, “MEDICINAL COMPOSITION AND USAGE” (priority 2009, published 2012)

System: human colon cancer cell strain colon 38
Experiment: Anti-tumor effect with 5-fluorouracil in human cancer xenograft tumor animal model
Type: in vivo
Settings: after 4 weeks
Text: According to methods described in “Methodology in Pharmacological Research of Traditional Chinese Medicine” (People's Medical Publishing House), test the anti-tumor effects of Formula A, B, C, D traditional Chinese medicine composition prepared from Embodiment 1-4 along with chemotherapy drugs (5-fluorouracil) for human cancer xenograft tumor animal model. 5-fluorouracil (fu) is broad spectrum anti-tumor medicine, it is mainly used to treat digestive tract tumor, commonly seen adverse reactions include nausea, reduced appetite or vomit, abdomen discomfort or diarrhea. About the test method, use human colon cancer cell strain colon 38 to inoculate subcutaneously in 18-23 g mouse, 14 days after the inoculation, respectively ingest Formula A, B, C, D traditional Chinese medicine composition prepared from Embodiment 1-4 into the stomach of each group of animals, the dosage is 500 mg/kg; 0.5-1 hour after stomach ingestion, inject 5-fluorouracil into abdomen, the dosage is 30 mg/kg. Execute stomach ingestion and drug injection twice each week, totaling 4 weeks.

## O=c1[nH]cc(F)c(=O)[nH]1 [fu, 5-fluorouracil]
Formula 500 mg/kg into stomach, fu 30 mg/kg into abdomen, twice each week
  Average tumor weight: 0.42 ± 0.11 g
Of 10 supplied mice
  Death number: 5
Versus CK group's average tumor weight
  Tumor inhibition rate (%): 64%
